# Assay results reported in patent US20220168427A1 (Ranok Therapeutics (Hangzhou) Co. Ltd., priority 2019, published 2022).
# How the values were obtained:
# RAF1 = assay: HSP90 Client Protein Degradation Flow Cytometry Assay, RAF1 in HEK-293 cells; assay type: cell-based, human
# Description: (§1) MV4-11 cells were plated in a 24-well tissue culture plate at a density of 350,000 cells/450 μL/well and incubated in 37° C./5% CO2 for 1 hr. Cells were then treated with compounds at various concentrations and incubated in 37° C./5% CO2 for 24 hr. Cells were harvested, washed once, counted and 200 μL of 1% paraformaldehyde/PBS was added and incubated for 15 min at room temperature. 200 μL of 1×PBS/0.4% Triton X-100 was added and incubated for 15 min at 4° C. Cells were washed three times and resuspended in 50 μL of 1×PBS/0.2% Triton X-100. 2 μL/10^6 cells of anti-BRD4 antibody (ABCAM, #128874) was added and mixed by pipetting up and down. Cells were incubated for 30 min at room temperature in the dark, washed three times and resuspended in 50 μL of 1×PBS/0.2% Triton X-100. Goat anti-rabbit IgG H&L antibody (1:2000 dilution) was added and mixed by pipetting up and down and incubated for 30 min at room temperature in the dark. Finally, cells were washed three times and resuspended in 200 μL of PBS for flow cytometric analysis.
# (§2) Similar flow cytometry experiments for ERBB2 in BT-474 human breast carcinoma cells (ATCC, #HTB-20) and IGF1R, EGFR and RAF1 in HEK-293 human embryonic kidney (ATCC, #CRL-1573) were performed using anti-ERBB2 (R&D, #FAB1129P), anti-IGF1R (Cell Signaling Technology, #9750), anti-EGFR (Cell Signaling Technology, #139690) and anti-RAF1 (ABCAM, #ab181115) antibodies.
# [1] = test system: HSP90 client proteins (ERBB2, IGF1R, EGFR, RAF1); assay: HSP90 Client Protein Degradation Flow Cytometry Assay, all clients together; assay type: cell-based, human; conditions: versus 59 nM for BRD4 degradation by western blotting in MV4-11 cells
# Description: as §1
# as §2, with “antibodies. […]” for “antibodies.”
# EGFR = assay: HSP90 Client Protein Degradation Flow Cytometry Assay, EGFR in HEK-293 cells; assay type: cell-based, human
# Description: as §1, §2
# [2] = Pharmacokinetics and Tissue Distribution in the MV4-11 xenograft model; assay type: in vivo, mice; conditions: female, CB-17 SCID, mouse, 5 mg/kg single intravenous dose
# Description: Pharmacokinetics and Tissue Distribution
# 15 female CB-17 SCID mice (treated in accordance with AAALAC animal welfare guidelines) were weighed and administered 5 mg/kg of compound 074 by a single intravenous injection. 0.10 mL of blood was collected from each mouse by submandibular vein and sodium heparin was added as an anticoagulant. Samples were collected before compound administration, and at 1 hr, 6 hr 24 hr and 48 hr time points after administration, with 3 mice sampled per time point. After collection, samples were placed on ice and the animals sacrificed to collect tumor and normal tissues. The method development and analysis of all samples were performed by the analytical laboratory at Shanghai Medicilon Inc. Intra-day accuracy evaluation of samples for quality control was carried out during sample analysis and a quality control accuracy of more than 66.7% of samples was required between to be 80-120%. Pharmacokinetic parameters were calculated using Phoenix WinNonlin7.0 software.
# BRD4 = target: T1, BRD4 (Homo sapiens, UniProt O60885); assay: BRD4 Western Blotting in MV4-11 cells; assay type: cell-based
# T1 construct: endogenous in cells; host or cells: MV4-11
# Description: Cells were then collected by centrifugation, washed one time with cold PBS, supernatants aspirated and cell pellets lysed with 4° C. RIPA lysis buffer containing a protease/phosphatase inhibitor cocktail. The total protein concentrations of cell lysates were determined by BCA Protein Assay kit. Samples were normalized for equivalent protein concentrations, 5× loading buffer added and heated to 100° C. for 10 min and cooled to room temperature. 20 μl of each sample/well was loaded on a SDS-PAGE gel and electrophoresed for 20 min at 80 V, then 120 V for 1.5 hr. Gels were then electroblotted to nitrocellulose membranes using a wet-transfer method at 250 mA for 2.5 hr. Membranes were incubated with blocking buffer for 1 hr and washed 3 times with TBST for 5 min. Then membranes were incubated with anti-BRD4 (Cell Signaling Technology, #13440) and anti-beta-Actin (Cell Signaling Technology, #3700) antibodies diluted in blocking buffer per the manufacturer's recommendation at 4° C. overnight. After washing 3 times, blots were incubated with the appropriate labeled secondary antibody for 1 hr at room temperature and washed again. Images were read on a LI-COR and the optical density values of bands determined by ImageJ software. Data was analyzed using GraphPad Prism 7.0.
# BRD4 (BD1+BD2) = target: T2, BRD4 (BD1+BD2) (Homo sapiens, UniProt O60885); conditions: read-out: BRD4 Binding Potency
# T2 construct: 1.8 μg/ml recombinant BRD4 (BD1+BD2 domains) protein
structure (smiles),measurement,setting,value
"Cc1sc2c(c1C)C(c1ccc(Cl)cc1)=N[C@@H](CC(=O)N1CCC(CN3CCN(Cc4ccc(-n5c(O)nnc5-c5cc(C(C)C)c(O)cc5O)cc4)CC3)CC1)c1nnc(C)n1-2.Cl [Compound 74, (S)-2-(4-(4-chlorophenyl)-2,3,9-trimethyl-6H-thieno[3,2-f][1,2,4]triazolo[4,3-a][1,4]diazepin-6-yl)-1-(4-((4-(4-(3-(2,4-dihydroxy-5-isopropylphenyl)-5-hydroxy-4H-1,2,4-triazol-4-yl)benzyl)piperazin-1-yl)methyl)piperidin-1-yl)ethan-1-one hydrochloride]",IC50,RAF1,762 nM
same,IC50 for HSP90 clients higher than the IC50 value for BRD4 degradation,[1],6- to 18 fold
same,IC50,EGFR,405 nM
same,Cmax,[2]; heart,1640 ng/g
same,Tmax,[2]; heart,1 h
same,half-life,[2]; heart,222 min
same,Cmax,[2]; liver,5040 ng/g
same,Tmax,[2]; liver,1 h
same,half-life,[2]; liver,202 min
same,Cmax,[2]; lung,2030 ng/g
same,Tmax,[2]; lung,1 h
same,half-life,[2]; lung,416 min
same,AUC(0-inf),[2]; plasma,3020 ng·h/mL
same,Cmax,[2]; plasma,498 ng/mL
same,Tmax,[2]; plasma,1 h
same,half-life,[2]; plasma,235 min
same,Cmax,[2]; tumor,462 ng/g
same,Tmax,[2]; tumor,1 h
same,half-life,[2]; tumor,1930 min
same,BRD4 degradation by western blotting with proteasome inhibitor bortezomib,BRD4; MV4-11 cells treated with both compound 074 and bortezomib,BRD4 degradation was blocked
same,BRD4 degradation by western blotting,"BRD4; MV4-11 cells, 24 hr, 100 and 300 nM",BRD4 degradation was observed
same,DC50,"BRD4; MV4-11 cells, read-out: IC50 value for BRD4 degradation determined by western blotting",59 nM
same,IC50,BRD4 (BD1+BD2),100 to 1000 nM
